These results are taken from PMC10916743 (RSC Advances, 2024).

Assay [1] relates to HepG2 cell line. Put plainly: MTT cytotoxicity assay, HepG2. The format is cell-based. The note with it: for IC50: Homo sapiens, HepG2, read-out: IC50 HepG2; for Selectivity index: fold more toxic against HepG2 than VERO cells: VERO IC50 / HepG2 IC50.
Assay [2] relates to MCF-7 cell line. The assay is described as follows: MTT cytotoxicity assay, MCF-7. The format is cell-based. The conditions noted are these: for IC50: Homo sapiens, MCF7, read-out: IC50 MCF-7; for Selectivity index: fold more toxic in MCF-7 than in VERO cells: VERO IC50 / MCF-7 IC50. (In general: Formazan colour is commonly taken as a measure of viable cells.)
For assay [3], the system named is HCT116 cell line. The assay is described as follows: MTT cytotoxicity assay, HCT116. The format is cell-based. The conditions noted are these: for IC50: Homo sapiens, HCT-116, read-out: IC50 HCT116; for Selectivity index: fold grander lethalness in HCT116 than in VERO cells: VERO IC50 / HCT116 IC50.
Assay [4] concerns A549 cell line. The assay is described as follows: MTT cytotoxicity assay, A549. It counts as cell-based. The conditions noted are these: for IC50: Homo sapiens, A549, read-out: IC50 A549; for Selectivity index: fold more toxicity in A549 than in VERO cells: VERO IC50 / A549 IC50.
Assay [5] concerns the target EGFR^WT (Homo sapiens, UniProt P00533). Put plainly: In vitro EGFR^WT kinase inhibitory assay. The format is biochemical. The conditions noted are these: mean ± SD of three separate experiments.
Assay [6] has as its target EGFR^T790M (Homo sapiens, UniProt P00533, T790M). The assay is described as follows: In vitro EGFR^T790M kinase inhibitory assay. It counts as biochemical. The conditions noted are these: HTRF kinase assay, mean ± SD of three separate experiments. (TR-FRET usually uses a lanthanide donor and a delayed reading to cut background.)

The structures appear in SMILES notation. Values joined by “and” are separate entries in the source; they are usually repeats but may differ in a detail not shown here. Identical values can stand only once.

Chain of EGFR^WT (P00533 25-1210): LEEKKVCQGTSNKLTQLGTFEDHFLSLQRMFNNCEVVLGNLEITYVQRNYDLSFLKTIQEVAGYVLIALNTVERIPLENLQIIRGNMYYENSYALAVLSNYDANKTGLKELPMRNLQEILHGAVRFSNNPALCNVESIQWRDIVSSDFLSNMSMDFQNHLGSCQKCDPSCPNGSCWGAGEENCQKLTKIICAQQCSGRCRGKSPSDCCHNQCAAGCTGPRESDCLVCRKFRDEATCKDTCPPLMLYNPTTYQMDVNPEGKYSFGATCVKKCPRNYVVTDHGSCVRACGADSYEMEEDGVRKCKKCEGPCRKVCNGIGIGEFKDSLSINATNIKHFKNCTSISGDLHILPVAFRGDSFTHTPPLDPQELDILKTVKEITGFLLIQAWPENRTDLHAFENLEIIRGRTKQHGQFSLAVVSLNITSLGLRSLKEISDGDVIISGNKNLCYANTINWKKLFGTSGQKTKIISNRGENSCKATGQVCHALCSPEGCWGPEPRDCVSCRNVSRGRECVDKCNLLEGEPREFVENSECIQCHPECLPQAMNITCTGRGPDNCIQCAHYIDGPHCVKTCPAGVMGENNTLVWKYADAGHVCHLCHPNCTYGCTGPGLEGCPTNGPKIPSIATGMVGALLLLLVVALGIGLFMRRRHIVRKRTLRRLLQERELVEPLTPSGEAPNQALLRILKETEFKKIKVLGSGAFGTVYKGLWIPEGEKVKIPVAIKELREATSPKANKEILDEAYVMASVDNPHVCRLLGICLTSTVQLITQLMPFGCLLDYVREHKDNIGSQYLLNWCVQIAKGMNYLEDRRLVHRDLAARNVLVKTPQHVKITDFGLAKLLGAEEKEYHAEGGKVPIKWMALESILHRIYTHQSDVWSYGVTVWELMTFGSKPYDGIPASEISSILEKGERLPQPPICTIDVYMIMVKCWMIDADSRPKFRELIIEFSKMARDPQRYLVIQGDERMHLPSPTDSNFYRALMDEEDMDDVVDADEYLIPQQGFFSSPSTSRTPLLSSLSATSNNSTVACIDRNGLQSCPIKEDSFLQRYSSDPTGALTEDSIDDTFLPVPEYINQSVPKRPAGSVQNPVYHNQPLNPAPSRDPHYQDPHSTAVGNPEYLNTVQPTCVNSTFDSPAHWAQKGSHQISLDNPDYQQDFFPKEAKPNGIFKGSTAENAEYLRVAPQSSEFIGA
Chain of EGFR^T790M (P00533 25-1210 T790M): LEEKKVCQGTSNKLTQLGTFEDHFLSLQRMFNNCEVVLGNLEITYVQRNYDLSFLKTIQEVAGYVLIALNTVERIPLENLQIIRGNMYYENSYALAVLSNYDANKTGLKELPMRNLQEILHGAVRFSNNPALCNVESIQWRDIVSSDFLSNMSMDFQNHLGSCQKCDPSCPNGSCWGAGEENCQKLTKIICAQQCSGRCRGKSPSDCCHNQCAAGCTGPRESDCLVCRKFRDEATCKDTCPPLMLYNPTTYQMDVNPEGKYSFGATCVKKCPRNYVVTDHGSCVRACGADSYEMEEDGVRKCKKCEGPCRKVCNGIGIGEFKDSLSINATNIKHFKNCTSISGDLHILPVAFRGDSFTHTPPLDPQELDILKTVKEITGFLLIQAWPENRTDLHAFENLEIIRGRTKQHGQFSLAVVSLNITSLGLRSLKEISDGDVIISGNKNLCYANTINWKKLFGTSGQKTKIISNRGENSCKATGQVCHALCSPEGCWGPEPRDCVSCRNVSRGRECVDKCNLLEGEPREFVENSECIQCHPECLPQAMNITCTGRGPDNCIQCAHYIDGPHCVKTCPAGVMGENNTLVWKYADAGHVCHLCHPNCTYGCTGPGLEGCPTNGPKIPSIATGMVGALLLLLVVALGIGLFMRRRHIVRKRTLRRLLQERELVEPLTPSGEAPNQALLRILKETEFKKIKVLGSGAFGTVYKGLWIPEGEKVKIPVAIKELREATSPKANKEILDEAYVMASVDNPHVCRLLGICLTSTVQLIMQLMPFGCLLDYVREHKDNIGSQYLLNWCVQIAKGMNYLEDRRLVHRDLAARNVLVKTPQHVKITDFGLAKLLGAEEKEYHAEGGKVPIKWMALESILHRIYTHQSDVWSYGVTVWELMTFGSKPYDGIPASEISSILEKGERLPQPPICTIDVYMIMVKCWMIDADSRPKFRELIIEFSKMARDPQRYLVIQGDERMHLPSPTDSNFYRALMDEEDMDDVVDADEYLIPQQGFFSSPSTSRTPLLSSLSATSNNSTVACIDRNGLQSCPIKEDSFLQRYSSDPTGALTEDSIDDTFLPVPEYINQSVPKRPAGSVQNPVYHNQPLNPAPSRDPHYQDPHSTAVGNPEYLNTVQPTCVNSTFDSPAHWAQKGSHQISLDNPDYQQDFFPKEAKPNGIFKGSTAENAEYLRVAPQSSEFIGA

Usually IC50 stands for the concentration at which inhibition is half-maximal. In the case of `NNC(=O)c1ccc(NC(=O)Cn2c(=O)c3cc(I)ccc3n(Cc3ccccc3)c2=O)cc1` [Compound 15, 2-[1-Benzyl-6-iodo-2,4-dioxo-1,4-dihydroquinazolin-3(2H)-yl]-N-[4-(hydrazinecarbonyl)phenyl]acetamide], the IC50 came out at 9.5 ± 1 µM in assay [1]; 8.8 ± 1 µM in assay [2]; 8.95 ± 1 µM in assay [3]; 8.18 ± 1 µM in assay [4]; 0.65 ± 0.15 µM in assay [5]; 0.8 ± 0.1 µM in assay [6]. In addition, the “Selectivity index: fold more toxic against HepG2 than VERO cells” value in assay [1] is given as 5.49 fold. Moreover, in assay [2], the “Selectivity index: fold more toxic in MCF-7 than in VERO cells” value was found to be 5.92 fold. For the same compound, the “Selectivity index: fold grander lethalness in HCT116 than in VERO cells” value in assay [3] stood at 5.82 fold. Further, the “Selectivity index: fold more toxicity in A549 than in VERO cells” value (from here on “Selectivity index: fold more toxicity”) in assay [4] was 6.37 fold.

As for `C=CCn1c(=O)n(CC(=O)Nc2ccc(-c3nnc(S)o3)cc2)c(=O)c2cc(I)ccc21` [Compound 8, 2-(1-Allyl-6-iodo-2,4-dioxo-1,4-dihydroquinazolin-3(2H)-yl)-N-(4-(5-mercapto-1,3,4-oxadiazol-2-yl)phenyl)acetamide], the IC50 in assay [1] came to 11.2 ± 1.9 µM; in assay [2], 10.8 ± 1.8 µM; in assay [3] it was 9.31 ± 1.8 µM; in assay [4] it was 9 ± 1.5 µM; in assay [5], 0.88 ± 0.35 µM; in assay [6], 0.96 ± 0.5 µM.

Regarding `CCOC(=O)c1ccc(NC(=O)Cn2c(=O)c3cc(I)ccc3n(Cc3ccccc3)c2=O)cc1` [Compound 14b, Ethyl 4-{2-[1-benzyl-6-iodo-2,4-dioxo-1,4-dihydroquinazolin-3(2H)-yl]acetamido}benzoate], the IC50 stood at 5.86 ± 1 µM in assay [1]; 7.03 ± 1.1 µM in assay [2]; 6.15 ± 1.5 µM in assay [3]; 5.77 ± 1.3 µM in assay [4]; 0.25 ± 0.35 µM in assay [5]; 0.36 ± 0.1 µM in assay [6]. In assay [1], the “Selectivity index: fold more toxic against HepG2 than VERO cells” value came to 8.39 fold. For the same compound, the “Selectivity index: fold more toxic in MCF-7 than in VERO cells” value in assay [2] amounted to 6.99 fold. In addition, the “Selectivity index: fold grander lethalness in HCT116 than in VERO cells” value in assay [3] is listed as 7.99 fold. Moreover, the “Selectivity index: fold more toxicity” value in assay [4] was 8.52 fold.

`C=CCn1c(=O)n(CC(=O)Nc2ccc(-n3nc(C)cc3C)cc2)c(=O)c2cc(I)ccc21` [Compound 10, 2-[1-Allyl-6-iodo-2,4-dioxo-1,4-dihydroquinazolin-3(2H)-yl]-N-[4-(3,5-dimethyl-1H-pyrazol-1-yl)phenyl]acetamide]: the IC50 in assay [1] came out at 7.35 ± 1 µM; in assay [2], 7.85 ± 0.9 µM; in assay [3], 6.96 ± 1.1 µM; in assay [4], 6.9 ± 1.5 µM; in assay [5], 0.38 ± 0.35 µM; in assay [6] it was 0.54 ± 0.5 µM. In addition, the “Selectivity index: fold more toxic against HepG2 than VERO cells” value in assay [1] was 5.91 fold. In addition, in assay [2], the “Selectivity index: fold more toxic in MCF-7 than in VERO cells” value was determined as 5.53 fold. The “Selectivity index: fold grander lethalness in HCT116 than in VERO cells” value in assay [3] is listed as 6.24 fold. In addition, the “Selectivity index: fold more toxicity” value in assay [4] was found to be 6.30 fold.

Turning to `Cc1cc(C)n(-c2ccc(NC(=O)Cn3c(=O)c4cc(I)ccc4n(Cc4ccccc4)c3=O)cc2)n1` [Compound 18, 2-[1-Benzyl-6-iodo-2,4-dioxo-1,4-dihydroquinazolin-3(2H)-yl]-N-[4-(3,5-dimethyl-1H-pyrazol-1-yl)phenyl]acetamide], the IC50 in assay [1] came out at 5.25 ± 0.7 µM; in assay [2] it was 6.46 ± 0.9 µM; in assay [3], 5.68 ± 1.5 µM; in assay [4], 5.24 ± 1.1 µM; in assay [5] it was 0.17 ± 0.35 µM; in assay [6] it was 0.25 ± 0.5 µM. Moreover, in assay [1], the “Selectivity index: fold more toxic against HepG2 than VERO cells” value was determined as 8.67 fold. Besides, the “Selectivity index: fold more toxic in MCF-7 than in VERO cells” value in assay [2] was determined as 7.04 fold.

For the compound `CNC(=O)c1ccc(NC(=O)Cn2c(=O)c3cc(I)ccc3n(Cc3ccccc3)c2=O)cc1` [Compound 13, 4-{2-[1-Benzyl-6-iodo-2,4-dioxo-1,4-dihydroquinazolin-3(2H)-yl]acetamido}-N-methylbenzamide], the IC50 in assay [1] is 8 ± 1.3 µM; in assay [2], 8.25 ± 1.1 µM; in assay [3], 7.36 ± 1.1 µM; in assay [4] it was 7.1 ± 1.1 µM; in assay [5] it was 0.5 ± 0.15 µM; in assay [6] it was 0.61 ± 0.1 µM. Also, the “Selectivity index: fold more toxic against HepG2 than VERO cells” value in assay [1] is recorded as 5.86 fold. Moreover, the “Selectivity index: fold more toxic in MCF-7 than in VERO cells” value in assay [2] was found to be 5.68 fold. Moreover, the “Selectivity index: fold grander lethalness in HCT116 than in VERO cells” value in assay [3] was found to be 6.37 fold. In assay [4], the “Selectivity index: fold more toxicity” value came out at 6.60 fold.

With `C=CCn1c(=O)n(CC(=O)Nc2ccc(C(=O)OCC)cc2)c(=O)c2cc(I)ccc21` [Compound 6b, Ethyl 4-{2-[1-allyl-6-iodo-2,4-dioxo-1,4-dihydroquinazolin-3(2H)-yl]acetamido}benzoate], the IC50 came to 11.6 ± 1.8 µM in assay [1]; 11 ± 1.6 µM in assay [2]; 9.79 ± 1.8 µM in assay [3]; 9.39 ± 1.5 µM in assay [4]; 0.95 ± 0.35 µM in assay [5]; 1.12 ± 0.5 µM in assay [6].

As for `C=CCn1c(=O)n(CC(=O)Nc2ccc(C(=O)NN)cc2)c(=O)c2cc(I)ccc21` [Compound 7, 2-[1-Allyl-6-iodo-2,4-dioxo-1,4-dihydroquinazolin-3(2H)-yl]-N-[4-(hydrazinecarbonyl)phenyl]acetamide], the IC50 in assay [1] came to 16.5 ± 1.6 µM; in assay [2] it was 15.2 ± 1.9 µM; in assay [3], 15.2 ± 1.7 µM; in assay [4] it was 12.2 ± 1.5 µM; in assay [5] it was 1.5 ± 0.15 µM; in assay [6] it was 1.9 ± 0.5 µM.

With `C=CCn1c(=O)n(CC(=O)Nc2ccc(-c3nnc(C)o3)cc2)c(=O)c2cc(I)ccc21` [Compound 9, 2-[1-Allyl-6-iodo-2,4-dioxo-1,4-dihydroquinazolin-3(2H)-yl]-N-[4-(5-methyl-1,3,4-oxadiazol-2-yl)phenyl]acetamide], the IC50 in assay [1] came out at 11 ± 1.4 µM; in assay [2] it was 10.4 ± 1.7 µM; in assay [3], 8.62 ± 1.5 µM; in assay [4], 7.06 ± 1.5 µM; in assay [5], 0.8 ± 0.25 µM; in assay [6], 0.89 ± 0.5 µM.

Regarding `C=CCn1c(=O)n(CC(=O)Nc2ccc(C(=O)OC)cc2)c(=O)c2cc(I)ccc21` [Compound 6a, Methyl 4-{2-[1-allyl-6-iodo-2,4-dioxo-1,4-dihydroquinazolin-3(2H)-yl]acetamido}benzoate], the IC50 was found to be 13 ± 1.4 µM in assay [1]; 12.2 ± 1.7 µM in assay [2]; 12.1 ± 1.5 µM in assay [3]; 10.4 ± 1.5 µM in assay [4]; 1.15 ± 0.25 µM in assay [5]; 1.54 ± 0.5 µM in assay [6].

For the compound `O=C(Cn1c(=O)c2cc(I)ccc2n(Cc2ccccc2)c1=O)Nc1ccc(-c2nnc(S)o2)cc1` [Compound 16, 2-[1-Benzyl-6-iodo-2,4-dioxo-1,4-dihydroquinazolin-3(2H)-yl]-N-[4-(5-mercapto-1,3,4-oxadiazol-2-yl)phenyl]acetamide], the 50% inhibitory concentration (IC50) in assay [1] was 6.54 ± 1 µM; in assay [2], 7.36 ± 1 µM; in assay [3], 6.67 ± 1 µM; in assay [4], 6.2 ± 1 µM; in assay [5], 0.33 ± 0.25 µM; in assay [6], 0.4 µM and 0.43 µM. For the same compound, the “Selectivity index: fold more toxic against HepG2 than VERO cells” value in assay [1] is listed as 6.69 fold. In addition, the “Selectivity index: fold more toxic in MCF-7 than in VERO cells” value in assay [2] was 5.95 fold. Besides, the “Selectivity index: fold grander lethalness in HCT116 than in VERO cells” value in assay [3] came out at 6.56 fold. Further, the “Selectivity index: fold more toxicity” value in assay [4] is reported as 7.06 fold.

With `Cc1nnc(-c2ccc(NC(=O)Cn3c(=O)c4cc(I)ccc4n(Cc4ccccc4)c3=O)cc2)o1` [Compound 17, 2-[1-Benzyl-6-iodo-2,4-dioxo-1,4-dihydroquinazolin-3(2H)-yl]-N-[4-(5-methyl-1,3,4-oxadiazol-2-yl)phenyl]acetamide], the IC50 in assay [1] turned out to be 5.55 ± 0.7 µM; in assay [2], 6.85 ± 0.9 µM; in assay [3], 5.4 ± 1.5 µM; in assay [4], 5.11 ± 1.1 µM; in assay [5], 0.15 ± 0.35 µM; in assay [6], 0.3 ± 0.5 µM. Moreover, the “Selectivity index: fold more toxic against HepG2 than VERO cells” value in assay [1] was 8.31 fold. Moreover, the “Selectivity index: fold more toxic in MCF-7 than in VERO cells” value in assay [2] came to 6.73 fold.

In the case of `C=CCn1c(=O)n(CC(=O)Nc2ccc(C(=O)NCC)cc2)c(=O)c2cc(I)ccc21` [Compound 5b, 4-{2-[1-Allyl-6-iodo-2,4-dioxo-1,4-dihydroquinazolin-3(2H)-yl]acetamido}-N-ethylbenzamide], the half-inhibitory concentration (IC50) was 12.5 ± 1 µM in assay [1]; 11.3 ± 1.1 µM in assay [2]; 11 ± 1.3 µM in assay [3]; 9.5 ± 1.5 µM in assay [4]; 1 ± 0.15 µM in assay [5]; 1.33 ± 0.1 µM in assay [6].

Take `COC(=O)c1ccc(NC(=O)Cn2c(=O)c3cc(I)ccc3n(Cc3ccccc3)c2=O)cc1` [Compound 14a, Methyl 4-{2-[1-benzyl-6-iodo-2,4-dioxo-1,4-dihydroquinazolin-3(2H)-yl]acetamido}benzoate]: the IC50 was determined as 9 ± 1.2 µM in assay [1]; 8.35 ± 1.5 µM in assay [2]; 8.5 ± 1.1 µM in assay [3]; 7.87 ± 1.1 µM in assay [4]; 0.6 ± 0.35 µM in assay [5]; 0.75 ± 0.5 µM in assay [6]. Also, in assay [1], the “Selectivity index: fold more toxic against HepG2 than VERO cells” value turned out to be 5.58 fold. Besides, the “Selectivity index: fold more toxic in MCF-7 than in VERO cells” value in assay [2] was determined as 6.01 fold. Further, in assay [3], the “Selectivity index: fold grander lethalness in HCT116 than in VERO cells” value was 5.91 fold. Also, the “Selectivity index: fold more toxicity” value in assay [4] is given as 6.38 fold.

Consider `C=CCn1c(=O)n(CC(=O)Nc2ccc(C(=O)NC)cc2)c(=O)c2cc(I)ccc21` [Compound 5a, 4-{2-[1-Allyl-6-iodo-2,4-dioxo-1,4-dihydroquinazolin-3(2H)-yl]acetamido}-N-methylbenzamide], for which the IC50 in assay [1] came to 15 ± 1.5 µM; in assay [2] it was 13.2 ± 1 µM; in assay [3] it was 13.4 ± 1.5 µM; in assay [4], 10.6 ± 1.5 µM; in assay [5] it was 1.32 ± 0.25 µM; in assay [6] it was 1.62 ± 0.2 µM.
